Patent US10550096B2, “Tetrahydroisoquinolines as PRMT5 inhibitors” (CTXT PTY LTD, priority 2016, dated 2020)
Structures can show the parent of a compound that is named as a salt.

Tests used:
[1] = target: Full-length PRMT5 enzyme co-expressed with His6-MEP50 (Homo sapiens (Human), UniProt O14744); experiment: PRMT5 Biochemical Assay; settings: histone H4 derived peptide substrate 1 μM, 1 μM S-Adenosyl methionine, 4 hours at 37 degree Celsius, Transcreener EPIGEN fluorescence polarisation
Method: Compounds of the invention may be tested for in vitro activity in the following assay:
A histone H4 derived peptide is used as substrate (amino acid sequence: […]NH2). Full-length PRMT5 enzyme (NCBI Reference sequence NP_006100.2) was co-expressed with His6-MEP50 in insect cells and purified via Nickel immobilized metal affinity and gel filtration chromatography (“the enzyme”).
The 6 μL reactions are run in Greiner brand black 384-well low volume assay plates. All reactions contained assay buffer (phosphate buffered saline, 0.01% (v/v) Tween-20, 0.01% (w/v) albumin from chicken egg white, 1 mM Dithiothreitol, 1 μM peptide substrate, 1 μM S-Adenosyl methionine, and 15 ng/reaction enzyme, with the enzyme being omitted from negative control reactions. Compounds were added in a volume of 100 nL from dilution series prepared in DMSO, positive and negative control reactions receiving the same volume DMSO without compound. The plates were sealed with adhesive seals and incubated for 4 hours at 37 degree Celsius. Reaction progress was measured using the Transcreener™ EPIGEN methyltransferase assay (BellBrook Labs, Madison, Wis.) as recommended by the manufacturer. To each reaction 2 μL detection mix were added, containing coupling enzymes, fluorescence polarisation tracer, and AMP antibody. Plates were incubated for 90 minutes before being read on a PerkinElmer EnVision™ plate reader in fluorescence polarisation mode. IC50 values were obtained from the raw readings by calculating percent inhibition (% I) for each reaction relative to controls on the same plate (% I=(I−CN)/(CP−CN) where CN/CP are the averages of the negative/positive reactions, respectively), then fitting the % I data vs. compound concentration [I] to % I=(A+((B−A)/(1+((C/[I])^D)))) where A is the lower asymptote, B is the upper asymptote, C is the IC50 value, and D is the slope.

[2] = test system: TE11 cells; experiment: PRMT5 Biomarker Assay (symmetrical dimethylation of arginine, Histone H4 Arginine 3); format: cell-based; settings: Homo sapiens, TE-11; TE11 cell line, 72 hours incubation, Di-Methyl Histone H4 Arginine 3 level, high content imaging
Method: Compounds of the invention may be tested for potency to inhibit symmetrical dimethylation of arginine in the following assay:
The cell line TE11 was seeded at a density of 6,000 cells per well in 96 well optical quality tissue culture plates in DME medium and 10% foetal bovine serum, and allowed to adhere for 5 hours under standard culture conditions (37 degree Celsius, 5% CO2). Compound dilutions prepared in DMSO were added to the medium, with negative control wells reserved for treatment with DMSO only and maximum inhibition controls receiving a potent PRMT5 inhibitor compound at 1 μM concentration. After incubation for 72 hours, the cells were fixed with 3.7% formaldehyde in PBS for 30 minutes at room temperature, washed with phosphate buffer saline and blocked with Odyssey blocking buffer (LI-COR, Lincoln, Nebr.). Rabbit anti-Di-Methyl Histone H4 Arginine 3 specific antibody (Epigentek) in Odyssey blocking buffer was added and incubated for 14 hours at 4 degree Celsius. […] Plates were washed and read on a PerkinElmer Envision 2103 in fluorescence intensity scanning mode (24 scans across the well area). […] Using a Columbus image analysis pipeline, individual nuclei were located by Hoechst 33342 stain and the methylation level was calculated from the Alexa647-related intensity in the same area. […]

Full-length PRMT5 enzyme co-expressed with His6-MEP50, sequence (O14744 whole entry): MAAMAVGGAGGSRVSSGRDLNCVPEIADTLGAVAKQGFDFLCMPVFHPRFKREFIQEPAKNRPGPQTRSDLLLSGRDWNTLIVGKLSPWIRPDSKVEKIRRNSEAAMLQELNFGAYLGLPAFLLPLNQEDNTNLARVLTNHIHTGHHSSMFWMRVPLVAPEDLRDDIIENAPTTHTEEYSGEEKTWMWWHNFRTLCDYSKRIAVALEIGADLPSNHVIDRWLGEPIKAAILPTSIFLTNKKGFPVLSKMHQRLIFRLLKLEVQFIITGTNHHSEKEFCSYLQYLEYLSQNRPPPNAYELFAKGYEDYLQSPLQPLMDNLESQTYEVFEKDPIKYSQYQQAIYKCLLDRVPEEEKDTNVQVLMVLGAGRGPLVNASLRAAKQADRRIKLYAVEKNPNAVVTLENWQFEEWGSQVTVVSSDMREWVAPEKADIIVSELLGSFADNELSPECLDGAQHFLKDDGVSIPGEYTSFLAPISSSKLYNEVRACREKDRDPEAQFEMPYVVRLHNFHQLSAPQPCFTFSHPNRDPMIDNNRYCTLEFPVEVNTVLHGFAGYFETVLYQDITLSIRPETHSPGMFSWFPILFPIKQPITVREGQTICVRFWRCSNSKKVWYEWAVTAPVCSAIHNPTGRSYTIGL
Full-length PRMT5 enzyme co-expressed with His6-MEP50, sequence (Q9BQA1 whole entry partner): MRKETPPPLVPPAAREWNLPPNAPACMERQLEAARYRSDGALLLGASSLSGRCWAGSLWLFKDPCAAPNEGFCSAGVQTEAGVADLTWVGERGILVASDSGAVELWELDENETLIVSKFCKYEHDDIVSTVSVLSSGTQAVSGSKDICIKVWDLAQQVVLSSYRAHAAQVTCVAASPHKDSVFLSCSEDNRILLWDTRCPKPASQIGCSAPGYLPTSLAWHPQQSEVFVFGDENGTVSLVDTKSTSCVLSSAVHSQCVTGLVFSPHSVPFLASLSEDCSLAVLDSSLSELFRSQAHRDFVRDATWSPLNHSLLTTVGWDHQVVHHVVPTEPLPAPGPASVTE

| Compound | IC50 [1] [nM] | IC50 [2] [nM] |
| --- | --- | --- |
| O=C(c1ccc2c(=O)n(C[C@@H](O)[C@@H]3Cc4ccccc4CN3)ccc2c1)N1C2CCC1COC2 [Example 1, 6-(3-Oxa-8-azabicyclo[3.2.1]octane-8-carbonyl)-2-((R)-2-hydroxy-2-((S)-1,2,3,4-tetrahydroisoquinolin-3-yl)ethyl)isoquinolin-1(2H)-one hydrochloride] | 533 | 430 |
| Cc1nn(C[C@@H](O)[C@@H]2Cc3ccccc3CN2)c(=O)c2ccccc12 [Example 2, 2-((R)-2-Hydroxy-2-((S)-1,2,3,4-tetrahydroisoquinolin-3-yl)ethyl)-4-methylphthalazin-1(2H)-one hydrochloride] | 7320 | – |
| CCc1nn(C[C@@H](O)[C@@H]2Cc3ccccc3CN2)c(=O)c2ccc(C(=O)N3C4CCC3COC4)cc12 [Example 3, 6-(3-Oxa-8-azabicyclo[3.2.1]octane-8-carbonyl)-4-ethyl-2-((R)-2-hydroxy-2-((S)-1,2,3,4-tetrahydroisoquinolin-3-yl)ethyl)phthalazin-1(2H)-one hydrochloride] | 39 | 1 |
